Measurements as given in patent US20130149250A1, “HYPERPOLARIZED AGENTS FOR MRI CHARACTERIZATION OF REDOX SYSTEMS IN VIVO” (The Regents of the University of California, priority 2011, published 2013).
“Also recorded” adds a separate entry of the source.

What was measured:
[1] = system: TRAMP tumors; assay: HP [1-13C] DHA 3D MRSI in TRAMP mice (Example 4); assay type: in vivo, mouse
Text: Hyperpolarization and dissolution of [1-^13C] DHA: [1-^13C] DHA dimer was polarized and dissolved.

[2] = 11.7 T NMR studies (T1 of hyperpolarized ascorbates); assay type: physicochemical; conditions: spin-lattice relaxation of C1 carbon at 11.7 T; mean±SD
Description: NMR studies were performed on an 11.7 T Varian NOVA spectrometer (125 MHz ^13C, Varian Instruments) using a 10 mm ^15N/^31P/^13C broadband direct detect probe. Thermal and dynamic hyperpolarized spectra for [1-^13C] DHA and [1-^13C] Vitamin C were obtained as previously described, and used to calculate T1's and signal enhancements. For NMR studies of the reduction of [1-^13C] DHA to [1-^13C] Vitamin C, hyperpolarized [1-^13C] DHA was reacted with an excess of sodium cyanoborohydride (NaBH3CN).
(§1) In vitro methods to interrogate redox chemistry have relied on designer redox-sensitive fluorescent proteins (yellow- or green fluorescent protein) incorporating an artificial dithiol-disulfide pair, or on detection of ROS themselves via chemical switching. In general, fluorescent probes have limited clinical translation given poor tissue penetration; making MR-compatible hyperpolarized ^13C probes an attractive alternative. […] The material was polarized by using a DNP approach and dissolved with a hot water/EDTA solution, with T1's calculated as previously described. […] Vitamin C carbons are tabulated at both 11.7 T and 3 T, with the longest recorded T1 that of [1-^13C] […] Vitamin C were measured as 5.9±0.5% and 3.6±0.1% respectively, representing signal enhancements on the order of approximately 24,000 and 15,000-fold relative to thermal equilibrium at 3 T. […]

[3] = system: MCD mouse liver; assay: HP DHA 13C MRSI of liver in methionine choline deficient (MCD) diet NAFLD mouse model; assay type: in vivo
Description: Prior to and post diet, high-resolution T2 and fat-water imaging was conducted at 14 T using a Varian WB600 micro-imager and 40 mm 1H millipede coil (Varian Instruments, Palo Alto, Calif.). Lipid percentage maps were calculated from fat and water images acquired using a conventional spin-echo sequence using the Dixon method. 350 μL of hyperpolarized DHA was injected each mouse (n=4) at baseline and 2 weeks of MCD diet using a Hypersense (Oxford Instruments). 13C MRSI data was acquired using an EPSI readout, variable flip angle scheme, matrix size 16×8×8 and final voxel resolution of 6 mm isotropic on a 3 T GE MRI (GE Healthcare, Waukesha, Wis.) equipped with a multinuclear package and dual-tuned 1H-^13C imaging coil. […] Ratios of HP DHA and VitC were calculated from the peak integrals in 3D MRSI data. Mice were then sacrificed and liver tissue was sectioned for staining with hematoxylin and eosin (H&E, structure) and Oil Red (lipid presence). Livers of normal mice were used for histologic comparison.

[4] = DNP hyperpolarization (HyperSense, OX063 trityl radical): build-up and polarization; assay type: physicochemical; conditions: for Percent Polarization: DNP, 15 mM OX063; for Percent Polarization / Buildup Constant: mean±SD; for Buildup Constant: solid-state build-up constant
[5] = system: normal mice; conditions: mouse, in vivo
Description: (§2) The RF coil used in these experiments was a dual-tuned ^1H-^13C coil with a quadrature ^13C channel and linear ^1H channel construction used in ^13C mouse imaging studies. ^13C MRSI studies were carried out as previously published. 350 μl (mice) or 2 mL (rats) of a hyperpolarized 15 mM [1-^13C] DHA solution were injected similar to previously described methods for [1-^13C]pyruvate. Similar experiments were performed on a set of normal mice using hyperpolarized [1-^13C] Vitamin C at 50 mM.
(§3) Tissues with high exposure to environmental toxins, namely the liver, kidney and lungs, are known to be rich in GSH and were considered the most likely source for the hyperpolarized [1-^13C] Vitamin C signal observed in vivo. In addition, a contribution from highly glycolytic tissues was anticipated, given the rapid transport properties of dehydroascorbate. Analogous to experiments performed previously using hyperpolarized [1-^13C]pyruvate, 3D MRSI studies were conducted on a series of normal mice (n=3), TRAMP mice (n=3), and rats (n=3) using a dual-tuned RF coil.

[6] = system: rat brains; conditions: in vivo
Description: as §2, §3

[7] = system: TRAMP mice; conditions: mouse, in vivo
Description: as §2, §3

[8] = system: normal mice; assay: Dynamic 13C MR spectroscopy after injection of hyperpolarized probe in normal mice; assay type: in vivo, mouse
Description: as §2
Evidence of in vivo transformation was determining having obtained data validating hyperpolarized [1-^13C] DHA as a redox probe. The transport of DHA in vivo occurs by a mechanism analogous to that of glucose, by facilitated diffusion using GLUT1, GLUT3, and GLUT4. Since glucose is known to compete with the uptake of DHA, in vivo experiments were performed on animals (mice and rats) fasted overnight. […] Dynamic MRSI studies were carried out as previously published. 350 μl of a hyperpolarized 15 mM [1-^13C] DHA solution were injected similar to previously described methods for [1-^13C] pyruvate, in normal mice with a ^13C urea phantom present for chemical shift reference. In a separate set of normal mice, similar experiments were performed using hyperpolarized [1-^13C] Vitamin C at a slightly higher concentration, 50 mM. […] DHA in a normal mouse. The DHA resonance at 174 ppm reached a maximum at 19±1.7 secs post injection. […] Vitamin C in vivo. This chemical shift was confirmed both in vitro at neutral pH using ^13C urea as a reference, as well as in vivo with hyperpolarized [1-^13C] Vitamin C itself injected in a separate animal.

[9] = system: TRAMP tumors; conditions: TRAMP mice, PET 50 minutes post injection
Description: FDG-PET: PET scans were performed on a small animal PET/CT scanner (Inveon, Siemens Healthcare, Malvern, Pa.). Mice were fasted overnight, anesthetized, and injected intravenously with 150-170 uCi FDG in 0.1-0.2 mL saline. PET images were acquired 50 minutes post injection in one 600 second frame. CT images were acquired in 120 projections of continuous rotation to cover 220° with x-ray tube operating at 80 kVp, 0.5 mA, and 175 ms exposure time. The matrix size of the reconstructed CT images was 512×512×662 with an isotropic voxel size of 0.191×0.191×0.191 mm^3 PET images were reconstructed using a manufacturer-provided ordered subsets expectation maximization (OS-EM) algorithm resulting in a 128×128×159 matrices with a voxel size of 0.776×0.776×0.796 mm^3 ROIs were drawn in both the tumors and surrounding tissue to calculate relative tumor signals.

[10] = T1 studies of hyperpolarized ascorbates on a 3 T MRI scanner; assay type: physicochemical; conditions: spin-lattice relaxation of C1 carbon at 3 T; mean±SD
Description: as §2, §1

Compound: O=C1C(=O)[13C](=O)O[C@@H]1[C@@H](O)CO [[1-^13C] DHA, [1-^13C] dehydroascorbate]
- Total HP 13C in tumors relative to surrounding tissue ([1]; TRAMP mice): 2.1±0.4
- tumor HP VitC/[VitC+DHA] relative to surrounding tissue ([1]; TRAMP mice): 7.0±2.3
- HP VitC (ratio of VitC to total HP signal) ([1]; TRAMP tumors (N=4)): 0.23±0.03
- HP VitC (ratio of VitC to total HP signal) ([1]; benign prostate, P=0.001): 0.06±0.03
- HP VitC (ratio of VitC to total HP signal) ([1]; surrounding tissues, P=0.005): 0.05±0.02
- 11.7T T1 [2]: 20.5 ± 0.9 s
- VitC/DHA ratio ([3]; after 2 weeks on MCD diet): 0.46±0.1
- VitC/VitC+DHA ([3]; after 2 weeks on MCD diet): 0.30±0.5
- decrease in the VitC/DHA ratio from baseline ([3]; after 2 weeks on MCD diet, P=0.005): 92%
- decrease in the VitC/VitC+DHA ratio from baseline ([3]; after 2 weeks on MCD diet, P=0.01): 48%
- VitC/DHA ratio ([3]; baseline): 0.98±0.09
- VitC/VitC+DHA ([3]; baseline (normal liver)): 0.49±02
- Percent Polarization [4]: 5.9±0.5%
- signal enhancement relative to thermal equilibrium ([4]; at 3 T): approximately 24,000 fold
- Buildup Constant [4]: 1120 ± 50 s
- Vitamin C signal [5]: no Vitamin C signal was observed
- VitC/Total Carbon [6]: 0.51±0.1
- VitC/Total Carbon [7]: 0.29±0.09
- time of maximum of DHA resonance (174 ppm) post injection ([8]; mouse, in vivo): 19 ± 1.7 s
- time of maximum of metabolite resonance (177.8 ppm, [1-13C] Vitamin C) ([8]; mouse, in vivo): 29 ± 1.7 s

Compound: O=C[C@H]([18F])[C@@H](O)[C@H](O)[C@H](O)CO [FDG, 2-18F-2-deoxy-D-glucose]
- 18F signal in regions of tumor relative to surrounding regions [9]: 6.8±3.6

Compound: O=[13C]1O[C@H]([C@@H](O)CO)C(O)=C1O [[1-^13C] Vitamin C, [1-^13C] ascorbic acid]
- 11.7T T1 [2]: 16.0 ± 0.8 s
- 3T T1 [10]: 29.2 ± 2.5 s
- Percent Polarization [4]: 3.6±0.1%
- Buildup Constant [4]: 1756 ± 97 s
- in vivo oxidation of hyperpolarized [1-13C] Vitamin C to [1-13C] DHA ([8]; 50 mM hyperpolarized [1-13C] Vitamin C, normal mice): trace oxidation; also recorded: trace conversion
